Reference: patent US11779602B2, “Methods of use for CAR T cells” (ENDOCYTE, INC., priority 2018, dated 2023)

Legend:
[1] = tested on: MDA-MB-231 tumors; test: CAR-T/EC17 therapy, fixed dose and dose de-escalation, in mice bearing MDA-MB-231 tumors; assay type: in vivo; details: E2-CAR-T 30 million cells, EC17 dose de-escalation
Excerpt: The effect of EC17 dose de-escalation was investigated on the anti-tumor activity and the toxicity (body weight changes) of CAR-T therapy. Two different anti-fluorescein scFv were used for the CAR constructions (FIG. 1). The first construct of CAR contains the following domains: antiFL(FITC-E2)scFv-IgG4 hinge (CH2 (L235D, N297Q)-CH3)-CD28 TM-4-1BB-CD3z-T2A-EGFRt. The second construct of CAR contains the following domains: antiFL(FITC-4M5.3)scFv-IgG4 hinge (CH2 (L235D, N297Q)-CH3)-CD28 TM-4-1BB-CD3z-T2A-EGFRt. The nucleic acid sequence and amino acid sequence of the CAR of each construct are shown as SEQ ID NOS:1 to 4. Human T cells were isolated, activated and transduced with a lentiviral vector carrying the appropriate CAR gene. CD4+ T cells with the CAR-modification and CD8+ T cells with the CAR-modification were isolated and cultured separately in vitro for about 7 days. CD4+ CAR-T cells and CD8+ CAR-T cells were mixed at a 1:1 ratio before i.v. administration for animal studies.
The second construct 4M5.3-CAR (antiFL(FITC-4M5.3) scFv-IgG4 hinge (CH2 (L235D, N297Q)-CH3)-CD28 TM-4-1BB-CD3z-T2A-EGFRt) was also evaluated. Mice bearing MDA-MB-231 tumors (150-250 mm^3) were used for in vivo studies to evaluate 4M5.3-CAR-T cells. […]

[2] = tested on: HOS-FRα tumor; test: CRS toxicity and sodium fluorescein rescue in HOS-FRα tumor-bearing mice; assay type: in vivo; details: i.v. ~95 mg/kg on day 13, plasma 6 hours later
Protocol: All animal care and use were performed according to NIH guidelines and in compliance with protocols approved by the Purdue University Animal Use and Care Committee. Female 4 to 5-week-old NOD/SCID gamma (NSG™) mice (stock number: 005557) were purchased from The Jackson Laboratory (Bar Harbor, Me.). Unless specifically indicated, all animals were maintained on a FA-deficient diet (TestDiet, St. Louis, Mo.) upon arrival and throughout the study. To establish subcutaneous xenografts, MDA-MB-231 and HOS-FRα were implanted in the right flank region at 2.5×10^6 and 1×10^6 cells per animal, respectively. For intravenous xenografts, THP1-FRβ cells were inoculated at 5×10^6 cells per animal. Subcutaneous tumors were measured 2-3 times per week with a caliper and calculated using the ellipsoidal formula (length×width^2)/2. […] All animal doses (CAR-T cells, EC17, sodium fluorescein) were given intravenously.
Depending on the CAR-T cell dose and how EC17 is administered, tumor-bearing mice receiving FITC-specific CAR-T cells can experience severe CRS and varying degrees of body weight loss. Therefore, a CRS grading system (0-5 scale) was developed to empirically assess CRS toxicity from animals' gross morphology and social behavior to allow for better timing of CRS rescue. While grades 0 and 5 indicated normal (no CRS) or death (due to severe CRS), respectively, grades 1, 2, and 3-4 were considered mild, light-to-moderate, and severe CRS (FIG. 57A). In addition, all EC17 doses were intentionally given towards the end of any given day to allow potential CRS symptoms to develop overnight. On the days immediately following each EC17 dose, animals were scored and rescue agents such as sodium fluorescein, folic acid and leucovorin were used to mitigate CRS toxicity. In this particular instance, a batch of E2 CAR-T cells with a high EGFRt+CD4/CD8 ratio (˜93:7) was given to HOS-FRα tumor-bearing mice at a mixture of ˜2.5 million CD8 and ˜33 million CD4 on day 0 (FIG. 57B). […]

O=C([O-])c1ccccc1-c1c2ccc(=O)cc-2oc2cc([O-])ccc12.[Na+].[Na+] [sodium fluorescein, reference compound]
antitumor activity after NaFL rescue [1]: antitumor activity is maintained | effect of rescue on CAR-T cell derived human cytokines [2]: acted very quickly to reduce CAR-T cell derived human cytokines
